Experimental data reported in patent US8703964B2, “Bendamustine cyclopolysaccharide compositions” (Supratek Pharma Inc., priority 2009, dated 2014).

Legend:
[1] = Pharmacokinetics of bendamustine dosed to rats, composition with SBECD and cetylpyridinium chloride (Example 11); format: in vivo; conditions: female, Sprague-Dawley, rat, plasma, iv, i.v. 20 mg/kg, read-out: Concentration of bendamustine in rat plasma, Mean (SEM)
Experimental: Control: 6 mg/mL bendamustine hydrochloride, 10.2 mg/mL of mannitol in 0.9% NaCl; dose of 20 mg/kg
Inventive Composition: 5 mg/g bendamustine hydrochloride, 40% w/w sodium sulfobutyl ether β-cyclodextrin, 0.5% cetylpyridinium chloride, 8.5 mg/g mannitol in water (produced following the procedure of Example 8); dose of 20 mg/kg.
Female Sprague-Dawley rats (250-350 g). The animals were kept three per cage with an air filter cover under light (12 h light/dark cycle, light on at 06 h00) and controlled temperature 22° C.+/−1° C. All manipulations with the animals were performed under a sterilized laminar hood. The animals had ad libitum access to Purina mouse chow and water. The animals were fasted overnight and anesthetized, before dosing. Dosing and Sampling: The inventive bendamustine composition and control were administered intravenously to rats in tail vein. After time intervals of 5, 15, 30, 45 min, 1, 1.5, 2 and 3 hrs post-injection, blood samples were collected. The rats were anesthetized by general inhalation of isoflurane. The blood samples were collected from the jugular vein with heparinized tube and kept on ice. Blood was immediately centrifuged, and plasma was separated. The plasma samples were immediately extracted. Sample Extraction and Analysis: The plasma samples 0.100 mL were transferred to plastic tubes. The samples were extracted with 0.400 mL of 100 mM HCl in acetonitrile while being shaken vigorously for 30 seconds. The samples were centrifuged at 10000 RPM for 5 minutes. The supernatant was separated. The samples were frozen in dry ice and kept at −80° C. until HPLC analysis. 20 microliter aliquots were injected into the HPLC for analysis. The HPLC Conditions: C18 reversed phase column 50×4.6 mm, Symmetry/Shield 3.5 micrometer Column temperature 30° C. Flow rate 1.5 mL/min Injection volume 20 microliters Fluorescence detection at wavelengths: excitation 327 nm, emission 420 nm Mobile phase: Buffer A: 5% acetonitrile 0.1% TFA Buffer B: 90% acetonitrile 0.1% TFA Run time: 10 min The improved pharmacokinetic profiles of bendamustine for tested composition versus the control is shown in Table 1 below.

[2] = test system: Lewis Lung carcinoma 3LL cells; experiment: Murine experimental lung metastasis model (Example 26); format: in vivo, C57Bl/6 mice; conditions: 50 mg/kg
Experimental: Female Charles Rivers C57Bl/6 mice, aged 5 to 6 weeks, were purchased from Charles River Canada Inc. The animals were kept 5 per cage with an air filter cover under light (12 light/dark cycle, light on at 6H00) and temperature (22°±1° C.)-controlled environment. All manipulations of animals were performed under a sterilized laminar hood. The animals had ad libitum access to Purina mouse chow (Pro Lab PMH 4018, Trademark of Agway, Syracuse, N.Y.) and water. These animal studies were conducted according to the “Guidelines for Care and Use of Experimental Animals”. Tumor Cell Culture:
Lewis Lung carcinoma 3LL cells were cultured in the appropriated culture medium. The cells were harvested in their logarithmic growth phase for the preparation of tumor implantation.
Lewis Lung carcinoma 3LL cells (2.0 to 5.0×10^5 cells in 200 ul PBS) were implanted intravenously by tail vein to establish experimental lung metastasis tumor models.
The treatments were performed on day after tumor implantation. The animals were dosed with the following dosing solutions.
non-formulated bendamustine (BM), (50 mg/kg)
Bendamustine (50 mg/kg) in 20% SBECD, 1% LMWP
Metastasis formation was evaluated by counting the numbers of metastasis spots on the lung surface. Routine metastasis examination were done for all organs at the end of the study.

[3] = test system: Human breast carcinoma (MDA-MB 231) subcutaneous solid tumours; experiment: Human breast carcinoma MDA-MB 231 s.c. solid tumours in nude mice (Example 27); format: in vivo, balb/c nu/nu mice; conditions: 35 mg/kg
Experimental: balb/c mice aged 5 to 6 weeks were purchased from Charles River Canada Inc. The animals were kept 5 per cage with an air filter cover under light (12 light/dark cycle, light on at 6 H00) and temperature (22° C.±1° C.)-controlled environment. All manipulations of animals were performed under a sterilized laminar hood. The animals had ad libitum access to Purina mouse chow (Pro Lab PMH 4018, Trademark of Agway, Syracuse, N.Y.) and water. These animal studies were conducted according to the “Guidelines for Care and Use of Experimental Animals”. Tumor Cell Culture: Human breast cancer cells MDA-MB 231 were cultured in the appropriated culture medium. The cells were harvested in their logarithmic growth phase for the preparation of tumor implantation. Tumor Implantation: Human tumor or myeloma cells (2.5 to 5.0×10^6 cells) were implanted subcutaneously in 0.200 mL of medium containing 30% Matrigel on the two flanks of balb/c nu/nu mice through a 1 to 2 cm long 20-gauge needle. Treatments: 2 to 3 weeks after tumor cell implantation, animals that developed s.c. solid tumors were selected and divided into several homogeneous groups (n=5 animals per group or dose) with respect to tumor size (0.5 to 0.8 cm in diameter). The treatments were performed next day. The animals were dosed with the following dosing solutions. Control: (0.9%, NaCl) Compositions:
non-formulated Bendamustine, (35 mg/kg)
Bendamustine (35 mg/kg) in 40% SBECD, 1% protamine sulfate (formulated BM)
Subcutaneous solid tumor measurements were performed on the day of first injection and at 3- to 4-day intervals thereafter. The two largest perpendicular diameters of each tumor were measured with calipers and tumor sizes were estimated using the formula: TV=L×W/2 where TV: tumor volume; L: length; W: width. The body weights of animals were also noted.

Compound: Cn1c(CCCC(=O)O)nc2cc(N(CCCl)CCCl)ccc21 [BM, 4-[5-[bis(2-chloroethyl)amino]-1-methylbenzimidazol-2-yl]butanoic acid]
- concentration at 0.08 h ([1]; 0.08 h post injection): 12300 ng/mL
- concentration at 0.25 h ([1]; 0.25 h post injection): 7620 ng/mL
- concentration at 0.5 h ([1]; 0.5 h post injection): 3050 ng/mL
- concentration at 0.75 h ([1]; 0.75 h post injection): 966 ng/mL
- concentration at 1 h ([1]; 1 h post injection): 414 ng/mL
- concentration at 1.5 h ([1]; 1.5 h post injection): 133 ng/mL
- concentration at 2 h ([1]; 2 h post injection): 54 ng/mL
- concentration at 3 h ([1]; 3 h post injection): 9 ng/mL
- Lung metastasis number ([2]; 3LL i.v. implanted, C57Bl/6 mice): 56.1 ± 9.5
- Inhibition on metastasis formation vs control ([2]; 3LL lung metastasis, mice): 14.4%
- Inhibition on metastasis formation vs not formulated BM ([2]; 3LL lung metastasis, mice): 0%
- Tumor weight after treatment, Average (SEM) ([3]; day 0): 0.237 (0.008) g
- Tumor weight after treatment, Average (SEM) ([3]; day 2): 0.250 (0.028) g
- Tumor weight after treatment, Average (SEM) ([3]; day 4): 0.294 (0.027) g
- Tumor weight after treatment, Average (SEM) ([3]; day 7): 0.313 (0.030) g
- Tumor weight after treatment, Average (SEM) ([3]; day 9): 0.349 (0.038) g
- Tumor weight after treatment, Average (SEM) ([3]; day 11): 0.417 (0.046) g
- Inhibition % vs control (on day 14) ([3]; day 14): 70.2%
- Tumor volume on day 14 ([3]; day 14): 0.54 ± 0.06 g
- Tumor weight after treatment, Average (SEM) ([3]; day 14): 0.537 (0.055) g
- Body weight on day 14 ([3]; nude mice with MDA-MB 231 tumours): 18.1 ± 0.39 g
